According to PMC5474674, “D-BMAP18 Antimicrobial Peptide Is Active In vitro, Resists to Pulmonary Proteases but Loses Its Activity in a Murine Model of Pseudomonas aeruginosa Lung Infection” (Frontiers in Chemistry, 2017):
In brackets after ≈: the same amount, converted by molar mass. Where a SMILES comes first, the peptide text is derived from it. [ ]: non-standard residue; d: D form.

Legend:
P. aeruginosa PA01 = assay: MIC/MBC broth microdilution; type: cell-based, Pseudomonas aeruginosa; settings: D-BMAP18, strain PA01, n = 6
Procedure: (§1) MIC values were determined using the broth microdilution method.

P. aeruginosa PA03 = assay: MIC/MBC broth microdilution; type: cell-based, Pseudomonas aeruginosa; settings: D-BMAP18, strain PA03, n = 6
Procedure: as §1

P. aeruginosa PA05 = assay: MIC/MBC broth microdilution; type: cell-based, Pseudomonas aeruginosa; settings: D-BMAP18, strain PA05, n = 6
Procedure: as §1

P. aeruginosa PA07 = assay: MIC/MBC broth microdilution; type: cell-based, Pseudomonas aeruginosa; settings: D-BMAP18, strain PA07, n = 6
Procedure: as §1

P. aeruginosa PA08 = assay: MIC/MBC broth microdilution; type: cell-based, Pseudomonas aeruginosa; settings: D-BMAP18, strain PA08, n = 6
Procedure: as §1

P. aeruginosa PA09 = assay: MIC/MBC broth microdilution; type: cell-based, Pseudomonas aeruginosa; settings: D-BMAP18, strain PA09, n = 6
Procedure: as §1

P. aeruginosa PA10 = assay: MIC/MBC broth microdilution; type: cell-based, Pseudomonas aeruginosa; settings: D-BMAP18, strain PA10, n = 6
Procedure: as §1

P. aeruginosa PA14 = assay: MIC/MBC broth microdilution; type: cell-based, Pseudomonas aeruginosa; settings: D-BMAP18, strain PA14, n = 6
Procedure: as §1

P. aeruginosa PA21 = assay: MIC/MBC broth microdilution; type: cell-based, Pseudomonas aeruginosa; settings: D-BMAP18, strain PA21, n = 6
Procedure: as §1

P. aeruginosa PA22 = assay: MIC/MBC broth microdilution; type: cell-based, Pseudomonas aeruginosa; settings: D-BMAP18, strain PA22, n = 6
Procedure: as §1

P. aeruginosa PA31 = assay: MIC/MBC broth microdilution; type: cell-based, Pseudomonas aeruginosa; settings: D-BMAP18, strain PA31, n = 6
Procedure: as §1

P. aeruginosa RP73 = assay: MIC/MBC broth microdilution; type: cell-based, Pseudomonas aeruginosa; settings: D-BMAP18, strain RP73, n = 6
Procedure: as §1

S. maltophilia = type: cell-based, Stenotrophomonas maltophilia; settings: 24 h
Procedure: P. aeruginosa, S. maltophilia, and Staphylococcus aureus strains were originally isolated from respiratory specimens of CF patients admitted to the “Bambino Gesù” Children Hospital in Rome and previously tested with AMPs (Pompilio et al., [2012]). P. aeruginosa RP73, and PAO1 were tested as reference strains.
as §1

C57BL/6NCrl mice = assay: In vivo acute toxicity, intratracheal; set-up: species or system mouse
Procedure: In vivo acute toxicity of D-BMAP18 was evaluated in C57BL/6NCrl mice (n = 5/group) (male; 22 g; 6 ± 2 week-old) obtained from Charles River Laboratories Italia S.r.l. (Calco, Milan, Italy). Mice were intra-tracheally challenged with increasing doses (1, 2, 4, and 8 mg/kg) of D-BMAP18 prepared in sterile distilled water. Control mice received vehicle only (sterile distilled water). General health and animal behavior (ruffled coats, huddled position, lack of retreat in handler's presence), weight loss, and survival were monitored daily over a 5-day period, comparatively to control mice. […] Subsequently, lungs were removed en bloc from the chest via sterile excision and immediately weighed. These experiments were carried out in accordance with the recommendations of the Guide for the Care and Use of Laboratory Animals of the National Institute of Health and in accordance with the ethical standards of the Animal Care Committee of the “G. d'Annunzio” University of Chieti-Pescara. The protocol was approved by the Animal Care Committee of the “G. d'Annunzio” University of Chieti-Pescara.

S. aureus SA2 = settings: D-BMAP18; strain SA2; broth microdilution, MH broth, 37°C 24 h; n = 6
Procedure: MIC values were determined using the broth microdilution method. Briefly, serial 2-fold dilutions of each peptide were prepared in Mueller-Hinton broth (MH; Difco) and aliquoted in round-bottom 96 well microtiter plates (Sarstedt). Each well was inoculated with a standardized inoculum to achieve a final test concentration of about 5 × 10^5 CFU/ml. […] To calculate the MBC, following the 24 h-incubation of the MIC assay, 25 μl of broth from clear wells were plated on MH agar plates, and incubated at 37°C for 24 h. MBC was defined as the lowest concentration of the peptide killing at least 99.9% of the original inoculum.

[1] = broth microdilution, MH broth, 37°C 24 h
[2] = kills at least 99.9% of inoculum

**Q.** Which results are given for `CC(C)C[C@@H](NC(=O)[C@@H](CCCCN)NC(=O)[C@@H](CCCCN)NC(=O)[C@@H](Cc1ccccc1)NC(=O)[C@@H](CC(C)C)NC(=O)[C@@H](CCCCN)NC(=O)[C@@H](CCCCN)NC(=O)[C@@H](Cc1ccccc1)NC(=O)[C@@H](CCCCN)NC(=O)[C@@H](CCCCN)NC(=O)[C@@H](CCCNC(=N)N)NC(=O)[C@@H](Cc1ccccc1)NC(=O)[C@@H](CCCNC(=N)N)NC(=O)[C@@H](CCCCN)NC(=O)[C@@H](Cc1ccccc1)NC(=O)[C@@H](CCCNC(=N)N)NC(=O)CN)C(=O)N[C@H](CO)C(N)=O` [D-BMAP18] (H-G[dR][dF][dK][dR][dF][dR][dK][dK][dF][dK][dK][dL][dF][dK][dK][dL][dS]-NH2)?
**A.** MIC (P. aeruginosa PA01; [1]): 8 µg/mL (≈ 3.42 µM); MBC (P. aeruginosa PA01; [2]): 32 µg/mL (≈ 13.7 µM); MIC (P. aeruginosa PA03; [1]): 8 µg/mL (≈ 3.42 µM); MBC (P. aeruginosa PA03; [2]): 8 µg/mL (≈ 3.42 µM); MIC (P. aeruginosa PA05; [1]): 4 µg/mL (≈ 1.71 µM); MBC (P. aeruginosa PA05; [2]): 8 µg/mL (≈ 3.42 µM); MIC (P. aeruginosa PA07; [1]): 8 µg/mL (≈ 3.42 µM); MBC (P. aeruginosa PA07; [2]): 8 µg/mL (≈ 3.42 µM); MIC (P. aeruginosa PA08; [1]): 8 µg/mL (≈ 3.42 µM); MBC (P. aeruginosa PA08; [2]): 16 µg/mL (≈ 6.83 µM); MIC (P. aeruginosa PA09; [1]): 16 µg/mL (≈ 6.83 µM); MBC (P. aeruginosa PA09; [2]): 32 µg/mL (≈ 13.7 µM); MIC (P. aeruginosa PA10; [1]): 16 µg/mL (≈ 6.83 µM); MBC (P. aeruginosa PA10; [2]): 32 µg/mL (≈ 13.7 µM); MIC (P. aeruginosa PA14; [1]): 16 µg/mL (≈ 6.83 µM); MBC (P. aeruginosa PA14; [2]): 32 µg/mL (≈ 13.7 µM); MIC (P. aeruginosa PA21; [1]): 16 µg/mL (≈ 6.83 µM); MBC (P. aeruginosa PA21; [2]): 32 µg/mL (≈ 13.7 µM); MIC (P. aeruginosa PA22; [1]): 4 µg/mL (≈ 1.71 µM); MBC (P. aeruginosa PA22; [2]): 32 µg/mL (≈ 13.7 µM); MIC (P. aeruginosa PA31; [1]): 16 µg/mL (≈ 6.83 µM); MBC (P. aeruginosa PA31; [2]): 32 µg/mL (≈ 13.7 µM); MIC (P. aeruginosa RP73; [1]): 4 µg/mL (≈ 1.71 µM); MBC (P. aeruginosa RP73; [2]): 8 µg/mL (≈ 3.42 µM); MIC90 (S. maltophilia): 16 µg/mL (≈ 6.83 µM); macroscopic lung pathology (four-point score) (C57BL/6NCrl mice; 1 mg/kg single intratracheal instillation, day 5 p.e., n = 5/group): No pulmonary damage; macroscopic lung pathology, median score (four-point scoring) (C57BL/6NCrl mice; 2 mg/kg single intratracheal instillation, day 5 p.e., n = 5/group, p < 0.05 vs control): 2.5; macroscopic lung pathology, median score (four-point scoring) (C57BL/6NCrl mice; 8 mg/kg single intratracheal instillation, day 5 p.e., n = 5/group, p < 0.01 vs control): 3; change in body weight, first 2 days (C57BL/6NCrl mice; 1, 2, 4, 8 mg/kg intratracheal, first 2 days p.e., regardless of dose, vs unexposed control): significant (p<0.01) decrease; change in body weight (C57BL/6NCrl mice; 1-8 mg/kg intratracheal, over 5 days p.e., also at the lowest dose, dose-dependent): significant reduction in body weight; MIC (S. aureus SA2): >32 µg/mL
